Two molecules from JP2008280350A, “ナリンゲニンカルコンを有効成分とするヒスタミン遊離抑制剤又はロイコトリエン遊離抑制剤を含有する医薬品、飲食品又は化粧品” (Kikkoman Corp, priority 2000, dated 2001) can be followed below.

Series [1] deals with rat mast cells [ラット肥満細胞]. As to the kind of experiment: Histamine release inhibition from rat mast cells (compound 48/80 induced). The conditions noted are these: for IC50: Rattus norvegicus, Mast cell, 10 min, read-out: IC50 (50% inhibition rate), histamine release. The format is cell-based.
For series [2], the system named is rat macrophages [ラットマクロファージ]. As to the kind of experiment: Leukotriene B4 release inhibition from rat macrophages (opsonized zymosan induced). The conditions noted are these: sample added 30 min before zymosan, LTB4 by ELISA (Table 2). The format is cell-based.
Series [3] has as its system mouse ear edema model [マウス耳介浮腫モデル]. As to the kind of experiment: Anaphylaxis inhibition in mouse ear edema model. The class given is in vivo. The conditions noted are these: C3H/Hecrj mice, female; oral; 0.8, 0.16, 0.032, 0.0064 mg/kg; 6 doses over 5 days; anti-TNP-IgE, picryl chloride (Fig. 4).
Series [4] relates to cell suspension prepared as in Example 2 (rat mast cells) [ラット肥満細胞]. As to the kind of experiment: Cytotoxicity test (trypan blue cell viability). The class given is cell-based. The conditions noted are these: 37°C, 0, 10, 20, 60, 120 min.

In brackets after ≈: the same amount, converted by molar mass. Like-named read-outs stand apart in the source and are kept apart here.

`CN1CCC(=C2c3ccccc3CC(=O)c3sccc32)CC1` [フマル酸ケトチフェン, reference compound]: in series [1], the IC50 was roughly 250 µg/mL (≈ 808 µM).
With `O=C(/C=C/c1ccc(O)cc1)c1c(O)cc(O)cc1O` [ナリンゲニンカルコン, 2’4’6’4’−Tetrahydroxychalcone], the “leukotriene release inhibitory activity” value in series [2] was “用量依存的に、ロイコトリエン遊離抑制活性を示した”. Moreover, the IC50 in series [1] (compound 48/80 (5 μg/ml) as inducer, 37°C, sample solutions 25-250 μg/ml) was roughly 70 µg/mL (≈ 257 µM). Moreover, the “histamine release inhibitory activity (in words)” value in series [1] (compound 48/80 as inducer, compared with ketotifen fumarate (Table 1)) was “公知のヒスタミン遊離抑制剤であるフマル酸ケトチフェンよりも強い、ヒスタミン遊離抑制活性を示した”. Moreover, in series [1] (from IC50 values, versus ketotifen fumarate), the “histamine release inhibitory activity relative to ketotifen fumarate (fold)” value is ~3.5 倍 (fold). The “anaphylaxis inhibitory activity (ear edema)” value in series [3] was “容量依存的なアナフィラキシー抑制活性を示した”. Further, in series [4], the “cytotoxicity (cell viability, number of viable cells)” value was “細胞毒性は見られなかった”.
